Measurements as given in ChEMBL document CHEMBL4421731, “Small molecules inhibiting oncoprotein Myc” (2016).
The source made the active and inactive calls. No cut-off for these calls is given here.

Key:
SK-MEL19 = test: Growth inhibition of human SK-MEL-19 cells; format: functional, cell-based
SK-MEL-103 [1] = test: Growth inhibition of human SK-MEL-103 cells; format: functional, cell-based
[2] = target: Myc proto-oncogene protein (Homo sapiens) (UniProt P01106); test: Inhibition of Myc in human melanoma cells assessed as increase in Myc-repressed p27kip1 gene expression; format: cell-based
Chain of Myc proto-oncogene protein (Homo sapiens) (P01106 whole entry): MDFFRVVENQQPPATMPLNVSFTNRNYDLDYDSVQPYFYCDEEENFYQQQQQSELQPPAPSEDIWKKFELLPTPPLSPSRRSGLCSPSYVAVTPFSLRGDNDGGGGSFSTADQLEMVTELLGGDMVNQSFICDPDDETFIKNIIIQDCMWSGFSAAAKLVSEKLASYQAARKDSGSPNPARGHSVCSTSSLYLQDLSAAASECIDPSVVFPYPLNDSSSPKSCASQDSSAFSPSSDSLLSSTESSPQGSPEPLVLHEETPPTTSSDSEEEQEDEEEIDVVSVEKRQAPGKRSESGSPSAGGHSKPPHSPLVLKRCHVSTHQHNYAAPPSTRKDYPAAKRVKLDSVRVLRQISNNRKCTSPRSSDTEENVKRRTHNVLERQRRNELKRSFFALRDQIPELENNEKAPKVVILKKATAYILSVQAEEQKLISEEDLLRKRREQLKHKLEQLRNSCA

[3] = target: Myc proto-oncogene protein (Homo sapiens) (UniProt P01106); test: Inhibition of Myc in human melanoma cells assessed as reduction in Myc-transactivated thymidylate synthase gene expression; format: cell-based
[4] = target: T1, N-myc proto-oncogene protein (Homo sapiens) (UniProt P04198); test: Inhibition of N-Myc (unknown origin) expressed in rat Rat1A cells assessed as inhibition of cell growth incubated for 72 hrs by methylene blue staining based assay
T1 sequence (whole entry): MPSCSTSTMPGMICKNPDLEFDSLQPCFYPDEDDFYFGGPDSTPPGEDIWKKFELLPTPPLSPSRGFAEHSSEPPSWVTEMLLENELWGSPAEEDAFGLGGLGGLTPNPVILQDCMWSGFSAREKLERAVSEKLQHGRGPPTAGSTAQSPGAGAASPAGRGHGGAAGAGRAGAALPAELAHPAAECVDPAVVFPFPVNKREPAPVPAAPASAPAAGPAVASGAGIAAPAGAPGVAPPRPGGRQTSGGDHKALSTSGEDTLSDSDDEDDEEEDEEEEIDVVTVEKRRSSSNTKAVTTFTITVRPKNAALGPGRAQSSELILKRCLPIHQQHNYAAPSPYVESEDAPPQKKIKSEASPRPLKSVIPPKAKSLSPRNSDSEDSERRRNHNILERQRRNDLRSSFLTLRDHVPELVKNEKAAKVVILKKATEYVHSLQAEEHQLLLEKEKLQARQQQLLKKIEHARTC

[5] = Intrinsic clearance in human liver microsomes at 1 uM in presence of NADPH by LC-MS/MS analysis; format: ADME, Microsome
[6] = target: Myc proto-oncogene protein (Homo sapiens) (UniProt P01106); test: Inhibition of C-Myc (unknown origin) expressed in rat Rat1A cells assessed as inhibition of cell growth incubated for 72 hrs by methylene blue staining based assay
[7] = Intrinsic clearance in mouse liver microsomes at 1 uM in presence of NADPH by LC-MS/MS analysis; format: ADME, Microsome
SK-MEL-103 [8] = test: Antitumor activity against human SK-MEL-103 cells xenografted in athymic nude mouse assessed as improvement in mouse survival at 50 mg/kg, ip dosed daily for 4 days dosed via Captisol formulation; format: functional, organism-based
[9] = target: Myc proto-oncogene protein (Homo sapiens) (UniProt P01106); test: Inhibition of C-Myc in human melanoma (#9) cells assessed as reduction in fumarate levels by [13C]-glucose labeling based assay; format: cell-based
[10] = Toxicity in athymic nude mouse xenografted with human SK-MEL-103 cells assessed as induction of weight loss at 50 mg/kg, ip dosed daily for 10 days dosed via Captisol formulation (reference value: 100 +/- 10%%); format: organism-based; details: in vivo, 240 h
[11] = target: Myc proto-oncogene protein (Homo sapiens) (UniProt P01106); test: Inhibition of C-Myc in human melanoma (#9) cells assessed as reduction in serine levels by [13C]-glucose labeling based assay; format: cell-based
[12] = target: Myc proto-oncogene protein (Homo sapiens) (UniProt P01106); test: Inhibition of C-Myc in human melanoma (#9) cells assessed as reduction in lactate levels by [13C]-glucose labeling based assay; format: cell-based
[13] = Toxicity in athymic nude mouse xenografted with human SK-MEL-103 cells assessed as induction of weight loss at 50 mg/kg, ip dosed daily for 14 days dosed via Captisol formulation; format: organism-based; details: in vivo, 336 h
SK-MEL-103 [14] = test: Antitumor activity against human SK-MEL-103 cells xenografted in athymic nude mouse assessed as initial tumor level at 50 mg/kg, ip dosed daily for 14 days dosed via Captisol formulation (reference value: 80%); format: functional
SK-MEL-103 [15] = test: Antitumor activity against human SK-MEL-103 cells xenografted in athymic nude mouse assessed as improvement in mouse survival at 50 mg/kg, ip dosed daily for 14 days dosed via Captisol formulation; format: functional, organism-based
[16] = Toxicity in athymic nude mouse xenografted with human SK-MEL-103 cells assessed as induction of weight loss at 50 mg/kg, ip dosed daily for 3 days dosed via Captisol formulation (reference value: 100 +/- 10%%); format: organism-based; details: in vivo, 72 h
[17] = Toxicity in athymic nude mouse xenografted with human SK-MEL-103 cells assessed as induction of sickness at 50 mg/kg, ip dosed daily for 14 days dosed via Captisol formulation and measured on day 16; format: organism-based; details: in vivo, 336 h
[18] = Toxicity in athymic nude mouse xenografted with human SK-MEL-103 cells assessed as induction of weight loss at 50 mg/kg, ip dosed daily for 5 days dosed via Captisol formulation (reference value: 100 +/- 10%%); format: organism-based; details: in vivo, 120 h
Melanoma cell line [19] = test: Antitumor activity against human melanoma cells xenografted in mouse assessed as inhibition of tumor growth measured up to 8 days; format: functional, cell-based
SK-MEL-103 [20] = test: Antitumor activity against human SK-MEL-103 cells xenografted in athymic nude mouse assessed as inhibition of tumor growth at 50 mg/kg, ip dosed daily; format: functional, organism-based
[21] = target: Myc proto-oncogene protein (Homo sapiens) (UniProt P01106); test: Inhibition of C-Myc (unknown origin) expressed in rat HO15.19 cells assessed as accumulation at G0/G1 phase at 3 uM by flow cytometry (reference value: 35.43%); format: cell-based; set-up: scale not given: the % may be the effect or the level left
[22] = target: Myc proto-oncogene protein (Homo sapiens) (UniProt P01106); test: Inhibition of C-Myc in human SK-MEL-103 cells assessed as reduction in MYC-dependent transcriptional activation incubated for 48 hrs by microarray relative to control; format: cell-based
[23] = Toxicity in athymic nude mouse xenografted with human SK-MEL-103 cells assessed as induction of weight loss at 50 mg/kg, ip dosed daily for 12 days dosed via Captisol formulation (reference value: 100 +/- 10%%); format: organism-based; details: in vivo, 288 h
[24] = Toxicity in athymic nude mouse xenografted with human SK-MEL-103 cells assessed as induction of weight loss at 50 mg/kg, ip dosed daily for 14 days dosed via Captisol formulation (reference value: 100 +/- 10%%); format: organism-based; details: in vivo, 336 h
[25] = Toxicity in mouse xenografted with human melanoma cells measured up to 8 days; details: 192 h
HO15.19 = test: Induction of cell cycle arrest in rat HO15.19 cells assessed as accumulation at G0/G1 phase at 3 uM by flow cytometry (reference value: 50.76%); format: cell-based; details: ho15.19, 3 µM
[26] = target: Myc proto-oncogene protein (Homo sapiens) (UniProt P01106); test: Inhibition of C-Myc in human melanoma (#9) cells assessed as reduction in pyruvate levels by [13C]-glucose labeling based assay; format: cell-based
[27] = Toxicity in athymic nude mouse xenografted with human SK-MEL-103 cells assessed as induction of weight loss at 50 mg/kg, ip dosed daily for 1 days dosed via Captisol formulation (reference value: 100 +/- 10%%); format: organism-based; details: in vivo, 24 h
[28] = Toxicity in athymic nude mouse xenografted with human SK-MEL-103 cells assessed as induction of distress at 50 mg/kg, ip dosed daily for 14 days dosed via Captisol formulation and measured on day 16; format: organism-based; details: in vivo, 336 h
[29] = Stability in mouse liver microsomes assessed as parent compound remaining at 1 uM incubated for 0 mins in presence of NADPH by LC-MS/MS analysis; format: ADME, Microsome; details: read-out: Stability
[30] = Stability in human liver microsomes assessed as parent compound remaining at 1 uM incubated for 0 mins in presence of NADPH by LC-MS/MS analysis; format: ADME, Microsome; details: read-out: Stability
Homo sapiens [31] = species: Homo sapiens; test: Growth inhibition of N-Myc overexpressing human NBL-S cells; format: functional
SH-SY5Y = test: Growth inhibition of human SH-SY5Y cells; format: functional, cell-based
Melanoma cell line [32] = test: Growth inhibition of human melanoma (#10) cells; format: functional, cell-based
Melanocyte = test: Growth inhibition of human melanocytes; format: cell-based
Homo sapiens [33] = species: Homo sapiens; test: Growth inhibition of human SHEP cells; format: functional
BE(2)-C = test: Growth inhibition of human BE(2)-C cells; format: functional, cell-based
IMR-32 = test: Growth inhibition of human IMR32 cells; format: functional, cell-based
Homo sapiens [34] = species: Homo sapiens; test: Growth inhibition of N-Myc amplified human NBL-WN cells; format: functional
Melanoma cell line [35] = test: Growth inhibition of human melanoma (#3) cells; format: functional, cell-based

CCN(CC)C1CC(=O)N(c2cccc(Cl)c2)C1=O (stereo not drawn)
growth inhibition (GI) (SK-MEL19): inactive
growth inhibition (GI) (SK-MEL-103 [1]): inactive

O=[N+]([O-])c1ccc(CCNC2CC3CCC2C3)cc1 (stereo not drawn)
growth inhibition (GI) (SK-MEL19): inactive
growth inhibition (GI) (SK-MEL-103 [1]): inactive

CCCOc1ccc(N2C(=O)CC(N3CCC(C(=O)O)CC3)C2=O)cc1 (stereo not drawn)
growth inhibition (GI) (SK-MEL19): inactive
growth inhibition (GI) (SK-MEL-103 [1]): inactive

COc1ccc(OCC(=O)N/N=C\c2cc(O)c(O)c(Br)c2)c(Br)c1
inhibition [2]: Active
inhibition [3]: Active

C=CCc1cccc(/C=N/NC(=O)c2cc(C(C)(C)C)n[nH]2)c1O
inhibition [2]: Active
inhibition [3]: Active

CCN(CC)c1ccc(/C=N/NC(=O)c2cc(C)n[nH]2)c(O)c1
inhibition [4]: Active
intrinsic clearance [5]: 47 µL/min/mg
inhibition [6]: Active
intrinsic clearance [7]: 200 µL/min/mg

Cc1ccc(/C=N/NC(=O)c2cc(-c3ccccc3)n[nH]2)c(O)c1
inhibition [4]: Active
inhibition [6]: Active

CCN(CC)c1ccc(/C=N/NC(=O)Cn2c3ccccc3c(=O)c3ccccc32)c(O)c1
inhibition [4]: Active
intrinsic clearance [5]: < 20 µL/min/mg
inhibition [6]: Active
intrinsic clearance [7]: 100 µL/min/mg

CCN(CC)c1ccc(/C=N\NC(=O)c2nnn(-c3nonc3N)c2CN2CCCCCC2)c(O)c1
inhibition [4]: Active
intrinsic clearance [5]: 87 µL/min/mg
inhibition [6]: Active
intrinsic clearance [7]: 690 µL/min/mg

CCCN(CCC)Cc1c(C(=O)N/N=C/c2ccc(N(CC)CC)cc2O)nnn1-c1nonc1N
inhibition [4]: Active
intrinsic clearance [5]: 130 µL/min/mg
inhibition [6]: Active
intrinsic clearance [7]: 270 µL/min/mg

CCN(CC)c1ccc(/C=N/NC(=O)Cn2nnc(-c3ccccc3)n2)c(O)c1
TGI (SK-MEL-103 [8]): inactive
inhibition [9]: Active
Activity [10]: 111.4%
inhibition [11]: Active
inhibition [12]: Active
Activity [13]: Non-Toxic
Activity (SK-MEL-103 [14]): <50%
Activity (SK-MEL-103 [15]): Active
Activity [16]: 103.3%
inhibition [2]: Active
Activity [17]: Non-Toxic
Activity [18]: 103.8%
TGI (Melanoma cell line [19]): Active
TGI (SK-MEL-103 [20]): Active
Activity [21]: 49.7%
inhibition [22]: Active
Activity [23]: 113.3%
Activity [24]: 114.5%
Activity [25]: Non-Toxic
intrinsic clearance [5]: 110 µL/min/mg
Activity (HO15.19): 54.9%
inhibition [3]: Active
inhibition [26]: Active
intrinsic clearance [7]: 270 µL/min/mg
Activity [27]: 100%
Activity [28]: Non-Toxic

Nc1nonc1-n1nnc(C(=O)N/N=C/c2ccccc2O)c1CN1CCc2ccccc2C1
remaining at 0 h, 1 µM [29]: 100%
inhibition [4]: Active
inhibition [6]: Active
remaining at 0 h, 1 µM [30]: 100%

CC(=O)NC(c1ccc2c(c1)OCO2)c1ccc2cccnc2c1O (stereo not drawn)
inhibition [2]: Active
inhibition [3]: Active

CCOc1cccc(/C=N/NC(=O)CSc2nc3ccccc3[nH]2)c1O
growth inhibition (GI) (Homo sapiens [31]): Active
growth inhibition (GI) (SH-SY5Y): Active
inhibition [2]: Active
growth inhibition (GI) (Melanoma cell line [32]): Active
growth inhibition (GI) (Melanocyte): Non-Toxic
growth inhibition (GI) (Homo sapiens [33]): Active
growth inhibition (GI) (BE(2)-C): Active
growth inhibition (GI) (IMR-32): Active
growth inhibition (GI) (Homo sapiens [34]): Active
growth inhibition (GI) (Melanoma cell line [35]): Active
inhibition [3]: Active

CN(C)CCCNc1cc(O)c2c(c1O)C(=O)c1ccccc1C2=O
growth inhibition (GI) (SK-MEL19): inactive
growth inhibition (GI) (SK-MEL-103 [1]): inactive

O=C(N/N=C/c1c(O)ccc2ccccc12)c1cc(C23CC4CC(CC(C4)C2)C3)n[nH]1
inhibition [2]: Active
inhibition [3]: Active

CC(C)=NNc1ncnc2[nH]cnc12
growth inhibition (GI) (SK-MEL19): inactive
growth inhibition (GI) (SK-MEL-103 [1]): inactive

COCc1cc(CN(C)C2CCCCC2)c(O)c2ncccc12
growth inhibition (GI) (Homo sapiens [31]): Active
growth inhibition (GI) (SH-SY5Y): Active
inhibition [2]: Active
growth inhibition (GI) (Melanoma cell line [32]): Active
growth inhibition (GI) (Melanocyte): Non-Toxic
growth inhibition (GI) (Homo sapiens [33]): Active
growth inhibition (GI) (BE(2)-C): Active
growth inhibition (GI) (IMR-32): Active
growth inhibition (GI) (Homo sapiens [34]): Active
growth inhibition (GI) (Melanoma cell line [35]): Active
inhibition [3]: Active

CCN(CC)Cc1c(C(=O)N/N=C/c2ccc(N(CC)CC)cc2O)nnn1-c1nonc1N
inhibition [4]: Active
intrinsic clearance [5]: 120 µL/min/mg
inhibition [6]: Active
intrinsic clearance [7]: 300 µL/min/mg

CC(C)(C)c1cc(C(=O)N/N=C/c2ccc(O)cc2O)n(-c2ccccc2)n1
growth inhibition (GI) (Homo sapiens [31]): Active
growth inhibition (GI) (SH-SY5Y): Active
inhibition [2]: Active
growth inhibition (GI) (Melanoma cell line [32]): Active
growth inhibition (GI) (Melanocyte): Non-Toxic
growth inhibition (GI) (Homo sapiens [33]): Active
growth inhibition (GI) (BE(2)-C): Active
growth inhibition (GI) (IMR-32): Active
growth inhibition (GI) (Homo sapiens [34]): Active
growth inhibition (GI) (Melanoma cell line [35]): Active
inhibition [3]: Active
